Assay results published in patent publication US7414107B2, “Pharmacologically active peptide conjugates having a reduced tendency towards enzymatic hydrolysis” (priority 1998, dated 2008).
Where a SMILES comes first, the peptide text is derived from it. Bridges are numbered along the chain shown (N, C = ends). Where no end group is shown, it is not given here. [ ]: non-standard residue; d: D form. Dab = NCC[C@H](N)C(=O)O

Key:
leucine aminopeptidase = target: T1, leucine aminopeptidase (Sus scrofa, UniProt P28839); assay: Hydrolysis kinetics in leucine aminopeptidase solution; type: in vitro ADME, porcine; conditions: 50 mM phosphate buffer pH 7.4, 37° C., leucine aminopeptidase 25 U/ml; for half-life: pig
T1 construct: purchased Sigma, UK type III-CP (catalogue number not given); host or cells: porcine kidney
T1 sequence (P28839 1-519): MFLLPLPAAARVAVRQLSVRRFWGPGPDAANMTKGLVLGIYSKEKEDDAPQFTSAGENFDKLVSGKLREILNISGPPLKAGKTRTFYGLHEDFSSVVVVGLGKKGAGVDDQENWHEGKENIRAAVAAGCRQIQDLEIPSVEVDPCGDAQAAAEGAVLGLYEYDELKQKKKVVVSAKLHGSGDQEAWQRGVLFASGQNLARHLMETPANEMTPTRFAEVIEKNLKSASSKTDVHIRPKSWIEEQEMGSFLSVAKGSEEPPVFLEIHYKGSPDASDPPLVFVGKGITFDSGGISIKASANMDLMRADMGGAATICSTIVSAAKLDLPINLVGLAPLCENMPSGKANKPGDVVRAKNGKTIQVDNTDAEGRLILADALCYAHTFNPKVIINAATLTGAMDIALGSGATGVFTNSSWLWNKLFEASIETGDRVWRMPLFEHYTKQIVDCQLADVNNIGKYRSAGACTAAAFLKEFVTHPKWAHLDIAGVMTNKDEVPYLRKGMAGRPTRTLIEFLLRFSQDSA
Procedure: (§1) Carboxypeptidase A (EC 3.4.17.1) type I from bovine pancreas, leucine aminopeptidase (EC 3.4.11.1) type III-CP from porcine kidney, α-chymotrypsin (EC […]) from bovine pancreas, and pepsin A (EC 3.4.23.1) from porcine stomach mucosa […] were obtained from Sigma, UK.
(§2) Gradient HPLC analysis of samples from in vitro kinetic measurements performed as described below was performed using a Hewlett Packard HP 1100 HPLC system consisting of a HP 1100 Binary Pump, a HPI 100 Autosampler, a HPI 100 Column Thermostat and a HP 1100 Variable Wavelength Detector. A Merck LiChroCART column (125×4 mm I.D.) and a LiChroCART precolumn (4×4 mm I.D.) packed with Lichrospher RP-18 (5 .μum particles) was used. The column was kept at 25° C. or 75° C. and the column effluent was measured by UV detection at 215 run. Separation of the peptide conjugates or the native peptides from degradation products and constituents of the reaction solutions was accomplished using gradient elution of the column with mixtures of mobile phase A (0.1 vol % TFA in water) and mobile phase B (0.085 vol % TFA in acetonitrile) at a flow rate of 1 ml/min.
(§3) The degradation of the peptide conjugate and the corresponding native peptide were studied at 37° C. in a 50 mM phosphate buffer solution at pH 7.4 containing leucine arninopeptidase (25 U/ml) or carboxypeptidase A (1 or 25 U/ml). Experiments were initiated by addition of an aliquot (100 μl) of a stock solution (1 mg/ml) of the peptide conjugate or the native peptide to 900 μl preheated enzyme solution giving a final concentration of ˜0.1 mg/ml (10^−5-10^−4M) of the peptide conjugate or the native peptide. The peptide/enzyme solution was kept at 37° C. using a SHT200D block heater from Stuart Scientific. At appropriate time intervals, samples of 100 μl were withdrawn from the peptide/enzyme solution, mixed thoroughly with 20 μl 25% TFA in acetonitrile in order to stop the enzymatic degradation process and analysed by HPLC as described above. Half-lives (t1/2) for the peptide conjugate and the corresponding native peptide in the enzyme solutions were calculated from plots of the natural logarithm to the concentration of the residual peptide (HPLC peak heights) against time using the formula t/2=1/kobs×ln(2), where kobs is the apparent first-order rate constant for the observed degradation.

carboxypeptidase A = target: T2, carboxypeptidase A (Bos taurus, UniProt P00730); assay: Hydrolysis kinetics in carboxypeptidase A solution; type: in vitro ADME, bovine; conditions: 50 mM phosphate buffer pH 7.4, 37° C., carboxypeptidase A 1 U/ml
T2 construct: purchased Sigma, UK type I (catalogue number not given); host or cells: bovine pancreas
T2 sequence (P00730 111-419): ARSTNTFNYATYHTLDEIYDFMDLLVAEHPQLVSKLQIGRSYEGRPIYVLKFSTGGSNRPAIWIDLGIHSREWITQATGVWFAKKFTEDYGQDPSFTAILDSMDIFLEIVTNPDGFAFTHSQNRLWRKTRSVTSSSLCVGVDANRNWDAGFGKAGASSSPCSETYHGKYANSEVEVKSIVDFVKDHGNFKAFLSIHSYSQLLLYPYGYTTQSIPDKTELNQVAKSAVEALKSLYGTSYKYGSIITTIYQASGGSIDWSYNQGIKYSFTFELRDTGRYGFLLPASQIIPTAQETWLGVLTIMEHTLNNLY
Procedure: as §1, §2, §3

Compound	pseudo first-order rate constant for the degradation (leucine aminopeptidase) [min⁻¹]	half-life (leucine aminopeptidase) [min]	half-life (carboxypeptidase A) [min]	pseudo first-order rate constant for the degradation (carboxypeptidase A) [min⁻¹]
H-KKKKKKYGGFL-OH [(Lys)6-Leu-Enkephalin-OH, H-Lys6 Tyr-Gly-Gly-Phe-Leu-OH]	0.026	27		
H-RPKPQQFFGLMKKKKKK-NH2 [Substance P-(Lys)6-NH2, H-Arg-Pro-Lys-Pro-Gln-Gln-Phe-Phe-Gly-Leu-Met-Lys6 -NH2]	0.011	66	126	0.0055
KKKKKKYGGFLKKKKKK [(Lys)6-Leu-Enkephalin-(Lys)6-OH, H-Lys6-Tyr-Gly-Gly-Phe-Leu-Lys6 OH]		> 6000		
CC(C)C[C@@H]1NC(=O)[C@@H]2CCCN2C(=O)CNC(=O)[C@H](Cc2ccccc2)NC(=O)[C@H](Cc2c[nH]cn2)NC(=O)[C@@H](NC(=O)[C@H](CO)NC(=O)[C@H](Cc2ccc(O)cc2)NC(=O)[C@@H](NC(=O)CNC(=O)CNC(=O)[C@H](CCCCN)NC(=O)[C@H](CCCCN)NC(=O)[C@H](CCCCN)NC(=O)[C@H](CCCCN)NC(=O)[C@H](CCCCN)NC(=O)[C@@H](N)CCCCN)[C@@H](C)O)CSSC[C@@H](C(=O)N[C@@H](CCCCN)C(=O)N2CCC[C@H]2C(=O)N[C@@H](CCC(N)=O)C(=O)NCC(=O)NCC(=O)N[C@@H](CCCCN)C(=O)N[C@@H](CCCCN)C(=O)N[C@@H](CCCCN)C(=O)N[C@@H](CCCCN)C(=O)N[C@@H](CCCCN)C(=O)N[C@@H](CCCCN)C(=O)O)NC(=O)[C@H](C(C)C)NC(=O)[C@H](Cc2c[nH]c3ccccc23)NC(=O)[C@H]([C@@H](C)O)NC1=O [(Lys)6-EMP-1-(Lys)6-OH, H-(Lys)6-Gly-Gly-Thr-Tyr-Ser-Cys-His-Phe-Gly-Pro-Leu-Thr -Trp-Val-Cys-Lys-Pro-Gln-Gly-Gly-(Lys)6-OH] (H-KKKKKKGGTYSCHFGPLTWVCKPQGGKKKKKK-OH; disulfide 12-21)		> 6000		
CC(C)C[C@H](NC(=O)[C@H](Cc1ccccc1)NC(=O)CNC(=O)CNC(=O)[C@@H](N)Cc1ccc(O)cc1)C(=O)N[C@@H](CCN)C(=O)N[C@@H](CCN)C(=O)N[C@@H](CCN)C(=O)N[C@@H](CCN)C(=O)N[C@@H](CCN)C(=O)N[C@@H](CCN)C(=O)O [Leu-Enkephalin-(Dbu)6-OH, H-Tyr-Gly-Gly-Phe-Leu-(Dbu)6-OH] (H-YGGFL[Dab][Dab][Dab][Dab][Dab][Dab]-OH)	0.025	28	1390	0.005
CC[C@H](C)[C@H](NC(=O)[C@H](Cc1ccccc1)NC(=O)[C@H](CCC(=O)O)NC(=O)[C@H](CCCCN)NC(=O)[C@H](C)NC(=O)[C@H](C)NC(=O)[C@H](CCC(N)=O)NC(=O)CNC(=O)[C@H](CCC(=O)O)NC(=O)[C@H](CC(C)C)NC(=O)[C@H](Cc1ccc(O)cc1)NC(=O)[C@H](CO)NC(=O)[C@H](CO)NC(=O)[C@@H](NC(=O)[C@H](CC(=O)O)NC(=O)[C@H](CO)NC(=O)[C@@H](NC(=O)[C@H](Cc1ccccc1)NC(=O)[C@@H](NC(=O)CNC(=O)[C@H](CCC(=O)O)NC(=O)[C@H](C)NC(=O)[C@@H](N)Cc1c[nH]cn1)[C@@H](C)O)[C@@H](C)O)C(C)C)C(=O)N[C@@H](C)C(=O)N[C@@H](Cc1c[nH]c2ccccc12)C(=O)N[C@@H](CC(C)C)C(=O)N[C@H](C(=O)N[C@@H](CCCCN)C(=O)NCC(=O)N[C@@H](CCCNC(=N)N)C(=O)O)C(C)C [GLP-1(7-36)(Human)-OH, H-His-Ala-Glu-Gly-Thr-Phe-Thr-Ser-Asp-Val-Ser-Ser-Tyr-Leu -Glu-Gly-Gln-Ala-Ala-Lys-Glu-Phe-Ile-Ala-Trp-Leu-Val-Lys-Gly-Arg-OH, reference compound]		22	148	0.0047
H-WAGGDASGEKEKEKE-OH [DSIP-(Lys-Glu)3-OH, H-Trp-Ala-Gly-Gly-Asp-Ala-Ser-Gly-Glu-(Lys-Glu)3-OH]		145		
CC[C@H](C)[C@H](NC(=O)[C@H](Cc1ccccc1)NC(=O)[C@H](CCC(=O)O)NC(=O)[C@H](CCCCN)NC(=O)[C@H](C)NC(=O)[C@H](C)NC(=O)[C@H](CCC(N)=O)NC(=O)CNC(=O)[C@H](CCC(=O)O)NC(=O)[C@H](CC(C)C)NC(=O)[C@H](Cc1ccc(O)cc1)NC(=O)[C@H](CO)NC(=O)[C@H](CO)NC(=O)[C@@H](NC(=O)[C@H](CC(=O)O)NC(=O)[C@H](CO)NC(=O)[C@@H](NC(=O)[C@H](Cc1ccccc1)NC(=O)[C@@H](NC(=O)CNC(=O)[C@H](CCC(=O)O)NC(=O)[C@H](C)NC(=O)[C@@H](N)Cc1c[nH]cn1)[C@@H](C)O)[C@@H](C)O)C(C)C)C(=O)N[C@@H](C)C(=O)N[C@@H](Cc1c[nH]c2ccccc12)C(=O)N[C@@H](CC(C)C)C(=O)N[C@H](C(=O)N[C@@H](CCCCN)C(=O)NCC(=O)N[C@@H](CCCNC(=N)N)C(=O)N[C@@H](CCCCN)C(=O)N[C@@H](CCCCN)C(=O)N[C@@H](CCCCN)C(=O)N[C@@H](CCCCN)C(=O)N[C@@H](CCCCN)C(=O)N[C@@H](CCCCN)C(=O)O)C(C)C [GLP-1(7-36)(Human)-(Lys)6-OH, H-His-Ala-Glu-Gly-Thr-Phe-Thr-Ser-Asp-Val-Ser-Ser-Tyr-Leu -Glu-Gly-Gln-Ala-Ala-Lys-Glu-Phe-Ile-Ala-Trp-Leu-Val-Lys-Gly-Arg-(Lys)6-OH]	0.013	53	87	0.008
CC(C)C[C@@H]1NC(=O)[C@@H]2CCCN2C(=O)CNC(=O)[C@H](Cc2ccccc2)NC(=O)[C@H](Cc2c[nH]cn2)NC(=O)[C@@H](NC(=O)[C@H](CO)NC(=O)[C@H](Cc2ccc(O)cc2)NC(=O)[C@@H](NC(=O)CNC(=O)CNC(=O)[C@H](CCCCN)NC(=O)[C@H](CCCCN)NC(=O)[C@H](CCCCN)NC(=O)[C@H](CCCCN)NC(=O)[C@H](CCCCN)NC(=O)[C@@H](N)CCCCN)[C@@H](C)O)CSSC[C@@H](C(=O)N[C@@H](CCCCN)C(=O)N2CCC[C@H]2C(=O)N[C@@H](CCC(N)=O)C(=O)NCC(=O)NCC(=O)O)NC(=O)[C@H](C(C)C)NC(=O)[C@H](Cc2c[nH]c3ccccc23)NC(=O)[C@H]([C@@H](C)O)NC1=O [(Lys)6-EMP-1-OH, H-(Lys)6-Gly-Gly-Thr-Tyr-Ser-Cys-His-Phe-Gly-Pro-Leu -Thr-Trp-Val-Cys-Lys-Pro-Gln-Gly-Gly-OH] (H-KKKKKKGGTYSCHFGPLTWVCKPQGG-OH; disulfide 12-21)		> 1440		
H-YGGFLKEEEKK-OH [Leu-Enkephalin-Lys-(Glu)3-(Lys)2-OH, H-Tyr-Gly-Gly-Phe-Leu-Lys-(Glu)3-(Lys)2-OH]	0.12	5.7	866	0.0008
WAGGDASGE [DSIP, H-Trp-Ala-Gly-Gly-Asp-Ala-Ser-Gly-GIu-OH, reference compound]		< 20		
